# Results reported in patent US20190117547A1, “COSMETIC COMPOSITIONS COMPRISING SCLAREOLIDE” (SYMRISE AG, priority 2016, published 2019).
# Experiments:
# Type in all cases: cell-based
# [1] = tested on: Human epidermal melanoma cells A375; test: Basal melanin formation in vitro; conditions: for melanin: basal (no irradiation)
# Description: Human epidermal melanoma cells A375 were cultured in 6-well plates. […] 48 h prior to and past to the irradiation the cells were treated with test compounds in non-cytotoxic concentrations. Melanocytes were lysed in a solution of NaOH. Melanin was quantified by measurement of absorbance at 405 nm and calculation based on a melanin standard curve.
# [2] = tested on: Human epidermal melanoma cells A375; test: Visible light induced hyperpigmentation in vitro; conditions: for Inhibition vs visible light induced / melanin: visible light 480 J/cm2
# Description: Human epidermal melanoma cells A375 were cultured in 6-well plates. The cells were exposed to visible light (480 J/cm2) with Hydrosun 750 equipped with KG1 filter. 48 h prior to and past to the irradiation the cells were treated with test compounds in non-cytotoxic concentrations. Melanocytes were lysed in a solution of NaOH. Melanin was quantified by measurement of absorbance at 405 nm and calculation based on a melanin standard curve.
# [3] = tested on: ex vivo human skin explants; test: Melanin formation after visible light irradiation on ex vivo human skin; conditions: for Inhibition vs Placebo: skin explants, visible light 480 J/cm2; for % of melanin: topical on skin explants, visible light 480 J/cm2, Fontana-Masson stain
# Description: The below formulations were applied on ex vivo human skin explants from abdominal surgery of a donor with phototype IV (Fitzpatrick scale). 48 h after the formulations were removed with a cotton pad. Skin explants were exposed to visible light (480 J/cm2) with Hydrosun 750 equipped with KG1 filter. Formulations were reapplied afterwards. 48 h later skin sections were prepared and melanin was stained by Fontana-Masson stain. Quantification of melanin was done by image analysis.
# EDN1(endothelin 1) = test: UVB induced gene expression (RTq PCR), EDN1; conditions: HaCaT cells, 50 μM Sclareolide, 20 mJ/cm^2 UVB, 24 hours; normalized to HPRT1 (UVB alone 22.7)
# Description: (§1) HaCaT cells are seeded into a 12-well plate with 2.0×10^5 cells/well. After incubation over night the test compound (50 μM Sclareolide) is added to the cells and the plate is incubated for two more hours. Then cells are washed with PBS and irradiated with 20 mJ/cm^2 UVB (UVITEC Cambridge, 312 nm). PBS is removed and medium (control and with test compound) added. Cells are incubated for 24 hours. RNA is extracted and purified using the RNeasy kit (Qiagen) according to the manufacturer's instructions. The RNA concentration is determined with a photometer (Eppendorf) and 2 μg are used for reverse transcription, that is performed with the TaqMan® MicroRNACells-to-CT™ Kit (Ambion) like described in the user manual. Quantitative real time PCR is performed using the Applied Biosystems StepOne™ with customized TaqMan® Array Fast Plates with following primers: HPRT1 (hypoxanthine phosphoribosyltransferase 1) as housekeeping gene, EDN1(endothelin 1), CXCL1 (C—X—C motif chemokine ligand 1), IL6 (interleukin 6) and IL8 (C—X—C motif chemokine ligand 8). Target gene transcript levels are normalized to the HPRT1 transcript level and the relative transcript changes are calculated using the RQ=2-ΔΔCt method.
# [4] = tested on: CXCL1 (C—X—C motif chemokine ligand 1); test: UVB induced gene expression (RTq PCR), CXCL1; conditions: HaCaT cells, 50 μM Sclareolide, 20 mJ/cm^2 UVB, 24 hours; normalized to HPRT1 (UVB alone 5.4)
# Description: as §1
# [5] = tested on: IL8 (C—X—C motif chemokine ligand 8); test: UVB induced gene expression (RTq PCR), IL8; conditions: HaCaT cells, 50 μM Sclareolide, 20 mJ/cm^2 UVB, 24 hours; normalized to HPRT1 (UVB alone 17.9)
# Description: as §1
# IL6 (interleukin 6) = test: UVB induced gene expression (RTq PCR), IL6; conditions: HaCaT cells, 50 μM Sclareolide, 20 mJ/cm^2 UVB, 24 hours; normalized to HPRT1 (UVB alone 8.4)
# Description: as §1
# [6] = tested on: genes well-known for the induction of hyperpigmentation; test: UVB induced gene expression (RTq PCR), overall statement; conditions: HaCaT cells, 50 μM Sclareolide, summary in words
# Description: as §1
# [7] = 0.05% sclareolide formulation (C)
# [8] = 0.2% sclareolide formulation (B)
smiles,measurement,setting,value
"CC1(C)CCC[C@]2(C)C3CC(=O)O[C@]3(C)CC[C@@H]12 (stereo partly drawn) [sclareolide, (3aR,5aS,9aS,9bR)-deca hydro-3a,6,6,9a-tetramethylnaphtha[2,1-b]furan-2(1H)-one]",melanin,[1]; 3.16 μM sclareolide,0.7775 ± 0.0412 µg
same,melanin,[1]; 10 μM sclareolide,0.6554 ± 0.0408 µg
same,melanin,[1]; 31.6 μM sclareolide,0.8851 ± 0.0579 µg
same,effect on basal melanin formation,[1]; summary in words,no effect
same,Inhibition vs visible light induced,[2]; 3.16 μM sclareolide,18%
same,melanin,[2]; 3.16 μM sclareolide,0.8784 ± 0.0293 µg
same,Inhibition vs visible light induced,[2]; 10 μM sclareolide,67%
same,melanin,[2]; 10 μM sclareolide,0.6306 ± 0.0675 µg
same,Inhibition vs visible light induced,[2]; 31.6 μM sclareolide,70%
same,melanin,[2]; 31.6 μM sclareolide,0.6106 ± 0.0658 µg
same,inhibition of visible light induced hyperpigmentation,[2]; summary in words,significantly inhibits
same,Inhibition vs Placebo,[3]; [7],1.2%
same,% of melanin,[3]; [7],61.33 ± 2.2%
same,Inhibition vs Placebo,[3]; [8],32.4%
same,% of melanin,[3]; [8],52.46 ± 2.9%
same,RQ EDN1,EDN1(endothelin 1),11.9
same,RQ CXCL1,[4],2.8
same,RQ IL8,[5],10.3
same,RQ IL6,IL6 (interleukin 6),5.7
same,inhibition of UVB induced upregulation of genes,[6],inhibits
